The source of these data is patent US9242999B2, “Cephem compound having pyridinium group” (priority 2011, dated 2016).

The structures appear in SMILES notation. Values after ≈ are worked out from the molar mass of the structure shown.

What all share (assay type): cell-based
Test [1] concerns A. baumannii SR27323. The test is described as follows: MIC, CLSI broth microdilution, cation-adjusted Mueller Hinton broth with human apo-transferrin (Test Example 1). Particulars: inoculum 5×10^5 cfu/mL; for MIC: Acinetobacter baumannii, SR27323, Table 2, OXA-23, OXA-58 carbapenemase producing strain, read-out: Minimum Inhibitory Concentration (MIC) A. baumannii SR27323; for Minimum Inhibitory Concentration (MIC) A. baumannii SR27323: Table 2, OXA-23, OXA-58 carbapenemase producing strain. As for the experimental part: (§1) Measurement of Minimum Inhibitory Concentration (MIC: μg/mL) was conducted according to CLSI (Clinical and Laboratory Standards Institute) method, and the amount of bacteria for inoculation was 5×10^5 cfu/mL, and cation-adjusted Mueller Hinton broth containing human apo-transferrin was used as a test medium, and the experiment was conducted using broth microdilution method. The bacteria used are listed below.
(Dilution methods test growth across graded concentrations, often in twofold steps.)

Test [2] concerns E. coli ATCCBAA-200. The description is as above. The following applies: inoculum 5×10^5 cfu/mL; for MIC: Escherichia coli, ATCCBAA200, Table 2, SHV-4 ESBL producing strain, read-out: Minimum Inhibitory Concentration (MIC) E. coli ATCC BAA-200. As for the experimental part: as §1
Test [3] has as its system K. pneumoniae ATCCBAA-1705. The description is as above. Particulars: inoculum 5×10^5 cfu/mL; for MIC: Klebsiella pneumoniae, ATCCBAA1705, Table 2, KPC-2 carbapenemase producing strain, read-out: Minimum Inhibitory Concentration (MIC) K. pneumoniae ATCC BAA-1705. Here is the method:
as §1

Test [4] relates to P. aeruginosa SR27060. Described as above. The following applies: inoculum 5×10^5 cfu/mL; for MIC: Pseudomonas aeruginosa, SR27060, Table 2, IMP-1 MBL producing strain (carbapenem resistance strain), read-out: Minimum Inhibitory Concentration (MIC) P. aeruginosa SR27060. As for the experimental part: as §1
For test [5], the system named is E. coli ATCCBAA-199. The description is as above. Particulars: inoculum 5×10^5 cfu/mL; for MIC: Escherichia coli, ATCCBAA199, Table 2, SHV-3 ESBL producing strain, read-out: Minimum Inhibitory Concentration (MIC) E. coli ATCC BAA-199. As for the experimental part:
as §1

Test [6] concerns P. aeruginosa SR24. The description is as above. The following applies: no enzyme, inoculum 5×10^5 cfu/mL; for MIC: Pseudomonas aeruginosa, SR24, Table 2, ceftazidime resistance strain, read-out: Minimum Inhibitory Concentration (MIC) P. aeruginosa SR24; for Minimum Inhibitory Concentration (MIC) P. aeruginosa SR24: Table 2, ceftazidime resistance strain. Here is the method: as §1

The subject of test [7] is E. coli ATCCBAA-200. The experiment in a line: MIC, CLSI broth microdilution, cation-adjusted iso-sensitest broth with human apo transferrin (Test Example 2). The following applies: Escherichia coli, ATCCBAA200, Table 5, SHV-4 ESBL producing strain, inoculum 5×10^5 cfu/mL, read-out: Minimum Inhibitory Concentration (MIC) E. coli ATCC BAA-200. As for the experimental part: (§2) Measurement of Minimum Inhibitory Concentration (MIC: μg/mL) was conducted according to CLSI (Clinical and Laboratory Standards Institute) method, and the amount of bacteria for inoculation was 5×10^5 cfu/mL, and cation-adjusted iso-sensitest broth containing human apo transferrin was used as a test medium, and the experiment was conducted using broth microdilution method. The bacteria used are listed below.

Test [8] relates to E. coli ATCCBAA-196. The test is described as above. The following applies: Escherichia coli, ATCCBAA196, Table 5, TEM-10 ESBL producing strain, inoculum 5×10^5 cfu/mL, read-out: Minimum Inhibitory Concentration (MIC) E. coli ATCC BAA-196. Here is the method:
as §2

Test [9] relates to E. cloacae NCTC13464. Described as above. Particulars: Enterobacter cloacae, Table 5, CTX-M group 9 ESBL producing strain, inoculum 5×10^5 cfu/mL, read-out: Minimum Inhibitory Concentration (MIC) E. cloacae NCTC 13464. Here is the method: as §2

For `CC(C)(O/N=C(\C(=O)N[C@@H]1C(=O)N2C(C(=O)[O-])=C(CSc3cc[n+](CC(=O)c4ccc(O)c(O)c4)cc3)CS[C@H]12)c1csc(N)n1)C(=O)O` [Comparative Compound 1, reference compound], the MIC in test [1] is 0.5 mg/L (≈ 0.686 µM); in test [2], 2 mg/L (≈ 2.74 µM); in [3], 0.25 mg/L (≈ 0.343 µM); in [4], over 32 mg/L; in test [5], 1 mg/L (≈ 1.37 µM); in test [6], 0.25 mg/L (≈ 0.343 µM).

As to `CC(C)(O/N=C(\C(=O)N[C@@H]1C(=O)N2C(c3nnn[n-]3)=C(CSc3cc[n+](Cc4ccc(O)c(O)c4)cc3)CS[C@H]12)c1csc(N)n1)C(=O)O` [Compound I-1], the “Minimum Inhibitory Concentration (MIC) A. baumannii SR27323” value in [1] worked out at 1 mg/L. The “Minimum Inhibitory Concentration (MIC) E. coli ATCC BAA-200” value in test [2] (Table 2, SHV-4 ESBL producing strain) is recorded as “≦0.031 μg/ml”. In test [3] (Table 2, KPC-2 carbapenemase producing strain), the “Minimum Inhibitory Concentration (MIC) K. pneumoniae ATCC BAA-1705” value is “≦0.031 μg/ml”. In addition, in [4] (Table 2, IMP-1 MBL producing strain (carbapenem resistance strain)), the “Minimum Inhibitory Concentration (MIC) P. aeruginosa SR27060” value came to 1. μg/ml. Also, the “Minimum Inhibitory Concentration (MIC) E. coli ATCC BAA-199” value in [5] (Table 2, SHV-3 ESBL producing strain) is listed as “≦0.031 μg/ml”. For the same molecule, the “Minimum Inhibitory Concentration (MIC) P. aeruginosa SR24” value in test [6] stood at 0.25 mg/L.

For `CC(C)(O/N=C(\C(=O)N[C@@H]1C(=O)N2C(c3nnn[n-]3)=C(CSc3cc[n+](Cc4ccc(O)c(O)c4)cc3)CS[C@H]12)c1csc(N)n1)C(=O)O` [Compound I-2], the “Minimum Inhibitory Concentration (MIC) A. baumannii SR27323” value in [1] is reported as “≦0.031 μg/ml”. Moreover, the MIC in test [2] is at most 0.031 mg/L; in test [3] it was at most 0.031 mg/L; in [4], 0.5 mg/L (≈ 0.69 µM); in [5] it was at most 0.031 mg/L. Also, in test [6], the “Minimum Inhibitory Concentration (MIC) P. aeruginosa SR24” value stood at 0.063 mg/L.

As for `CC(C)(O/N=C(\C(=O)N[C@@H]1C(=O)N2C(c3nnn[n-]3)=C(CSc3cc[n+](CC(=O)c4ccc(O)c(O)c4)cc3)CS[C@H]12)c1nsc(N)n1)C(=O)O` [Compound I-4], the MIC in [1] is 1 mg/L (≈ 1.33 µM); in test [2], 0.25 mg/L (≈ 0.332 µM); in test [3] it was at most 0.031 mg/L; in test [4] it was 2 mg/L (≈ 2.65 µM); in test [5], 0.125 mg/L (≈ 0.166 µM); in [6] it was 0.125 mg/L (≈ 0.166 µM).

On to `C[C@H](O/N=C(\C(=O)N[C@@H]1C(=O)N2C(c3nnn[n-]3)=C(CSc3cc[n+](CC(=O)c4ccc(O)c(O)c4)cc3)CS[C@H]12)c1nc(N)sc1Cl)C(=O)O` [Compound I-5], for which the MIC was 0.5 mg/L (≈ 0.647 µM) in test [1]; 0.063 mg/L (≈ 0.0815 µM) in test [2]; at most 0.031 mg/L in [3]; 1 mg/L (≈ 1.29 µM) in test [4]; at most 0.031 mg/L in [5]; 0.125 mg/L (≈ 0.162 µM) in test [6].

Consider `CC(C)(O/N=C(\C(=O)N[C@@H]1C(=O)N2C(c3nnn[n-]3)=C(CSc3cc[n+](-c4ccc(O)c(O)c4)cc3)CS[C@H]12)c1csc(N)n1)C(=O)O` [Compound I-6], for which the MIC in test [1] was 0.125 mg/L (≈ 0.176 µM); in test [2] it was at most 0.031 mg/L; in test [3], at most 0.031 mg/L; in [5], at most 0.031 mg/L; in test [6] it was 0.063 mg/L (≈ 0.0886 µM).

In the case of `CC(C)(O/N=C(\C(=O)N[C@@H]1C(=O)N2C(c3nnn[n-]3)=C(CSc3cc[n+](CC(=O)c4ccc(O)c(O)c4)cc3)C[S+]([O-])[C@H]12)c1csc(N)n1)C(=O)O` (some centres unmarked) [Compound I-7], the MIC in test [1] is 2 mg/L (≈ 2.6 µM); in [2], at most 0.031 mg/L; in test [3] it was at most 0.031 mg/L; in [4] it was 4 mg/L (≈ 5.2 µM); in test [5] it was at most 0.031 mg/L; in test [6] it was 0.5 mg/L (≈ 0.65 µM).

Consider `C[C@H](O/N=C(\C(=O)N[C@@H]1C(=O)N2C(c3nnn[n-]3)=C(CSc3cc[n+](CC(=O)c4ccc(O)c(O)c4)cc3)CO[C@H]12)c1nc(N)sc1Cl)C(=O)O` [Compound I-8], for which the MIC is 2 mg/L (≈ 2.64 µM) in [1]; 0.25 mg/L (≈ 0.33 µM) in [2]; at most 0.031 mg/L in test [3]; 16 mg/L (≈ 21.1 µM) in test [4]; 0.063 mg/L (≈ 0.0832 µM) in [5]; 0.25 mg/L (≈ 0.33 µM) in [6].

With `CC(C)(O/N=C(\C(=O)N[C@@H]1C(=O)N2C(c3nnn[n-]3)=C(CSc3cc[n+](CC(=O)c4ccc(O)c(O)c4Cl)cc3)CS[C@H]12)c1nc(N)sc1Cl)C(=O)[O-].[Na+]` [Compound I-15], the MIC is at most 0.031 mg/L in test [7], at most 0.031 mg/L in test [8] and 0.125 mg/L in test [9].

Consider `CC(C)(O/N=C(\C(=O)N[C@@H]1C(=O)N2C(c3nnn[n-]3)=C(CSc3cc[n+](-c4ccc(O)c(O)c4Cl)cc3)CS[C@H]12)c1nsc(N)n1)C(=O)[O-].[Na+]` [Compound I-17], for which the MIC came to 0.125 mg/L in test [7], 0.125 mg/L in [8] and 0.063 mg/L in test [9].
